# Reference: the ASAP Discovery antiviral challenge data (2025)
# Tests used:
# [1] = human; liver_microsomes
# [2] = mouse; liver_microsomes
# [3] = not given; remark: listed apart in the source
# [4] = mdck_mdr1
SMILES,microsomal CLint [1] [µL/min/mg],microsomal CLint [2] [µL/min/mg],solubility kinetic [µM],logD [3],Papp [4] [×10⁻⁶ cm/s]
CC(C)(C)[C@H](Nc1ncnc2[nH]c(-c3cnn(CC(N)=O)c3)cc12)c1ccc2c(n1)OCCO2 (racemic),36,31,48,2.7,0.822
CC(C)[C@H](Nc1ncnc2[nH]c(-c3cnn(C)c3)cc12)c1ccc2c(c1)S(=O)(=O)CCC2 (racemic),141,155,94,3.3,1.73
CC(C)[C@H](Nc1ncnc2[nH]c(-c3cnn(C)c3C#N)cc12)c1ccc2c(c1)S(=O)(=O)CCC2 (racemic),490,440,34,3.6,1.97
CC(C)[C@H](Nc1ncnc2[nH]c(-c3cnn(C)c3C#N)cc12)c1ccc2c(n1)NC(=O)CO2 (racemic),70,145,29,3.7,9.83
CC(C)[C@H](Nc1ncnc2[nH]c(-c3cnn(CC(=O)N(C)C)c3)cc12)c1ccc2c(c1)S(=O)(=O)CCC2 (racemic),106,68,38,2.1,0.67
CC(C)[C@H](Nc1ncnc2[nH]c(-c3cnn(CC(N)=O)c3)cc12)c1ccc2c(c1)S(=O)(=O)CCC2 (racemic),116,61,341,1.9,0.32
CC(C)[C@H](Nc1ncnc2[nH]c(-c3cnn(CC(N)=O)c3)cc12)c1ccc2c(n1)OCCO2 (racemic),14,12,385,2.4,2.46
CC(C)[C@H](Nc1ncnc2[nH]cc(C(=O)NC3CC3)c12)c1ccc2c(c1)S(=O)(=O)CCC2 (racemic),29,234,257,3.1,2.46
CCNC(=O)c1cc2c(N[C@H](c3ccc4c(c3)S(=O)(=O)CCC4)C(C)C)ncnc2[nH]1 (racemic),108,85,336,2.8,0.7
CCNC(=O)c1cc2c(N[C@H](c3ccc4c(c3)S(=O)(=O)NCC4)C(C)C)ncnc2[nH]1 (racemic),85,45,344,2.6,1.96
CNC(=O)Cn1cc(-c2cc3c(N[C@H](c4ccc5c(c4)S(=O)(=O)CCC5)C(C)C)ncnc3[nH]2)cn1 (racemic),94,77,306,2.4,0.47
CNC(=O)c1c[nH]c2ncnc(N[C@H](c3ccc4c(c3)S(=O)(=O)CCC4)C(C)C)c12 (racemic),131,192,390,2.5,2.23
CNC(=O)c1cc2c(N[C@H](c3ccc4c(c3)S(=O)(=O)CCC4)C(C)C)ncnc2[nH]1 (racemic),77,46,369,2.4,0.46
CNCc1cc(-c2cc3c(N[C@H](c4ccc5c(c4)S(=O)(=O)CCC5)C(C)C)ncnc3[nH]2)co1 (racemic),57,52,321,2.1,1.61
COCCNC(=O)c1c[nH]c2ncnc(N[C@H](c3ccc4c(c3)S(=O)(=O)CCC4)C(C)C)c12 (racemic),540,888,378,2.8,1.62
Cn1ncc(-c2cc3c(N[C@H](c4ccc5c(n4)OCCO5)C(C)(C)C)ncnc3[nH]2)c1C#N (racemic),81,209,24,2.7,13.5
